The values that follow come from US20130209550A1, “Anti-Viral Azide Containing Compounds” (LIFE TECHNOLOGIES CORPORATION, priority 2010, published 2013).

Assay [1] deals with HIV. The experiment in a line: Infectivity of azide-labeled HIV, luciferase reporter assay on TZM/BI reporter cell line. The assay is classed as cell-based. To be noted: HIVNL4-3 labeled in CEMx174 cells; virus incubated 12 hours on TZM/BI; single cycle replication system; two luciferase reagents; FIGS. 3 and 4. How it is done:
CEMx174 cells were transfected with HIVNL4-3 in a T-150 flask and the virus production was monitored by reverse transcriptase activity until peak virus production occurred (usually 7 to 9 days post transfection). Prior to transfection, the CEMx174 cells were spiked with the following azide-modified biomolecules: 15-azidopentadecanoic acid (50-100 μM), 12-azidododecanoic acid (50-100 μM), tetraacetylated N-azidoacetylgalactosamine (20-40 μM), and tetraacetylated N-azidoacetyl-D-mannosamine (20-40 μM).
Labeled virus was also obtained from the transfected cells. More specifically, virus-containing supernatants were collected and virus was purified through 20% sucrose as previously described (Graham, D. R. et al., Proteomics 2008, 8:4919-30). The purified virus was then mixed with the CLICK-IT® detection reagent, tetramethylrhodamine (TAMRA) alkyne and the CLICK-IT® Protein Reaction Buffer Kit (Invitrogen, Carlsbad, Calif.). Virus samples were run on a one-dimensional gel to reveal azide-labeled viral proteins (FIG. 2). […]
To examine the effect of the azide-modified biomolecules on the innate biology of the virus, the azide-labeled virus from the transfected cells was isolated and tested in cell infection studies. […] Viral infectivity was determined by measuring cellular luciferase activities with two different luciferase reagents.
For orientation: Reporter assays use an easily measured gene product as a stand-in for the process of interest.

Assay [2] deals with Nuclear-GFP BacMam 2.0 Virus (baculovirus). The experiment in a line: Infectivity of PTM analog-labeled Nuclear-GFP BacMam baculovirus in U2-OS cells. The assay is classed as cell-based. The conditions noted are these: virus labeled in Sf9 cells with 50 uM analog; U2-OS cells incubated overnight with labeled virus; FIG. 5. An excerpt:
Inhibition of insect cell baculovirus infectivity with azido fatty acid analogs: The BacMam system uses a modified insect cell virus (baculovirus) as a vehicle to efficiently deliver and express genes in mammalian cells. A Nuclear-GFP BacMam 2.0 expression system (Invitrogen, C10602) was used as a model to determine if PTM analog labeling of the virus would affect mammalian cell infectivity. Viruses were labeled with various PTM analogs and used to infect mammalian cells. Infectivity was determined by the expression of nuclear-GFP, as viral entry into the cell is required for expression of GFP protein, […]
Characterization of BacMam virus production: To verify, quantitate, and normalize the amount of enriched viruses obtained from insect cell supernatants, samples of each virus were lysed in SDS sample preparation buffer (SPB), sonicated with a probe tip sonicator, and heated at 90C to completely dissolve the viral proteins. Viral protein concentrations of the lysates were then determined. […]
Mammalian cell infection protocol: To determine if the PTM analog-labeled viruses retain the ability to infect mammalian cells, 50,000 U2-OS cells (human osteosarcoma cell line) were plated onto a 6 well-chamber glass bottom plate. […] The following day cells were imaged on AMG EVOS fluorescence microscope at 10× or 20× magnification using both white light and GFP filters (FIG. 5). […]

In the case of `[N-]=[N+]=NCCCCCCCCCCCC(=O)O` [12-azidododecanoic acid], the “impact on the infectivity of the virus (cellular luciferase activity)” value in assay [1] is listed as “profound impact on the infectivity of the virus”. Further, the “nuclear-GFP expression (viral entry)” value in assay [2] is “no nuclear-GFP expression”.

Take `[N-]=[N+]=NCCCCCCCCCCCCCCC(=O)O` [15-azidopentadecanoic acid]: the “nuclear-GFP expression (viral entry)” value in assay [2] is reported as “no nuclear-GFP expression”.
